Results on 22 compounds are retold here after patent US8293914B2, “4-OXO,1-4-dihydroquinoline M1 receptor positive allosteric modulators” (Merck Sharp & Dohme Corp., priority 2008, dated 2012).

This experiment has as its target T1, acetylcholine muscarinic M1 receptor (CHOnfat/hM1 cells) (Homo sapiens, UniProt P11229).
T1 construct: expressed in transfected cells; host or cells: CHOnfat (CHO) cells expressing hM1
T1 sequence (P11229 1-460): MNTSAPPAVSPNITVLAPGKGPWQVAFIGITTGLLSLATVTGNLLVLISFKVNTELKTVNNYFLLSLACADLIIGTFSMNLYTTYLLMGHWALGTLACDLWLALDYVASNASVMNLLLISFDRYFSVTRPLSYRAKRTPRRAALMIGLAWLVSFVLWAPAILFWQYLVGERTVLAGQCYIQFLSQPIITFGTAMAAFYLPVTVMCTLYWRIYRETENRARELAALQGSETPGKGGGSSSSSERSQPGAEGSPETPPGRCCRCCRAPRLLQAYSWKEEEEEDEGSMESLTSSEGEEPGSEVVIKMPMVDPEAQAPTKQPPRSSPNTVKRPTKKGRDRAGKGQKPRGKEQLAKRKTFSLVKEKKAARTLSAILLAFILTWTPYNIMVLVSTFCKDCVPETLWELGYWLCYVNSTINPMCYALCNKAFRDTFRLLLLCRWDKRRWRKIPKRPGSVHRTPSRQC
Description: muscarinic M1 FLIPR calcium assay for positive allosteric modulator activity (acetylcholine EC20). The experiment is classed as cell-based. The note with it: FLIPR intracellular Ca2+, 4 min preincubation, then EC20 acetylcholine (3 nM final), read-out: IP Value (inflection point). On the procedure: The assay studies the effect of one or several concentrations of test compounds on basal or acetylcholine-stimulated Ca^2+ levels using FLIPR.
Compounds are prepared and subjected to a preincubation period of 4 min. Thereafter, a single EC20 concentration of acetylcholine is added to each well (3 nM final). The intracellular Ca^2+ level of each sample is measured and compared to an acetylcholine control to determine any modulatory activity.
Cells: CHOnfat/hM1, hM2, hM3 or hM4 cells are plated 24 hr before the assay at a density of 18,000 cells/well (100 μL) in a 384 well plate. CHOnfat/hM1 and CHOnfat/hM3 Growth Medium: 90% DMEM (Hi Glucose); 10% HI FBS; 2 mM L-glutamine; 0.1 mM NEAA; Pen-Strep; and 1 mg/ml Geneticin, are added. For M2Gqi5CHOnfat and M4Gqi5CHOnfat cells, an additional 600 μg/ml hygromycin is added.
Buffers. […] Dye Loading Buffer: Assay Buffer plus 1% Fetal Bovine Serum and Fluo-4AM/Pluronic Acid Mixture. […] 20% Pluronic Acid Solution stock, with a concentration of 0.04% in Buffer, 0.02% in Assay.
65 μL of 2 mM Fluo-4AM are mixed with 130 μL of 20% Pluronic Acid. The resulting solution and 650 μL FBS is added to the assay buffer for a total volume of 65 mL. Positive Controls: 4-Br-A23187: 10 mM in DMSO; final concentration 10 μM. Acetylcholine: 10 mM in water, working stock at both 20 μM and 30 μM in assay buffer, final concentration of 10 μM. This is used to check the maximum stimulation of the CHOK1/hM1 cells. 20 μM (2×) acetylcholine is added in the preincubation part of the assay, and the 30 μM (3×) stock is added in the second part. (EC20)Acetylcholine: 10 mM in water, working stock of 9 nM (3×), and final concentration in assay is 3 nM. This is used after the preincubation with test compounds. Addition of the EC20 Acetylcholine to each well with a test compound will ascertain any modulator activity. 24 wells contain 3 nM Acetylcholine alone as a control.
Four 96-well plates are combined into a 384-well plate using Mosquito Nanolitre Pipetting System by transferring 1 μl of serial diluted compounds to each well, and 1 mM acetylcholine (100× stock concentration) were added as a control. Using Temo, 49 μl assay buffer is added to each well of the 384-well plate right before assay.
In a 96-well Whatman 2 ml Uniplate, 9 nM Acetylcholine (3×) is pipetted into wells corresponding to the screening compounds, and into control wells. The 30 μM acetylcholine control (3×) is added into control wells, and the 3× agonist plate is transferred into a 384-well plate.
Cells are washed three times with 100 μL, of buffer, leaving 30 μL of buffer in each well. Using Multimek, 30 μL of Dye Loading Buffer is added into each well and incubated at 37° C., 5% CO2 for up to one hr.
After 60 min, the cells are washed three times with 100 μL of buffer, leaving 30 μL of buffer in each well. The cell plate, screening plate, and agonist addition plates are placed on the platform in the FLIPR and the door is closed. A signal test to check background fluorescence and basal fluorescence signal is performed. Laser intensity is adjusted if necessary.
4 min of preincubation with the test compounds is provided to determine any agonist activity on the M1 receptor by comparison to the 1 mM acetylcholine control. After preincubation, the EC20 value of acetylcholine (3 nM final) is added to determine any modulator activity.
The inflection point is calculated from the FLIPR values, and is a measure of activity.

SMILES strings stand for the structures.

Regarding `CCn1cc(-c2ccc(Cn3cc(C(=O)O)c(=O)c4c(F)ccc(F)c43)nc2)cn1` [Example 2], the EC50 worked out at 0.065 µM. Under `O=C(O)c1cn(Cc2ccc(-c3cccc(O)c3)nn2)c2c(F)cccc2c1=O` [Example 319] stands 0.382 µM; under `O=C(O)c1cn(Cc2cccc(-n3cccn3)n2)c2c(F)ccc(F)c2c1=O` [Example 160], 2.24 µM; under `C[S+]([O-])c1ccc(Cn2cc(C(=O)O)c(=O)c3cccc(F)c32)nn1` (stereo not shown) [Example 352], 24.8 µM. In the case of `O=C(O)c1cn(Cc2ccc(-c3ccc(N4CCOCC4)nc3)cn2)c2cccc(F)c2c1=O` [Example 27] it was 0.1 µM; in that of `Nc1ccc(-c2ccc(Cn3cc(C(=O)O)c(=O)c4c(F)cccc43)nc2)cn1` [Example 10], 0.103 µM. In the case of `O=C(O)c1cn(Cc2ccc(N3CCC3)nn2)c2c(F)cccc2c1=O` [Example 334] it was 5.25 µM; in that of `CS(=O)(=O)Nc1cccc(-c2ccc(Cn3cc(C(=O)O)c(=O)c4cccc(F)c43)nc2)c1` [Example 101], 0.099 µM; in that of `O=C(O)c1cn(Cc2cnc(-c3ccncc3)cn2)c2c(F)cccc2c1=O` [Example 315], 7.19 µM. On to `O=C(O)c1cn(Cc2ccc(N3CCCCC3)nn2)c2c(F)cccc2c1=O` [Example 372, 8-Fluoro-4-oxo-1-[(6-piperidin-1-ylpyridazin-3-yl)methyl]-1,4-dihydroquinoline-3-carboxylic acid], for which the EC50 amounted to 14.3 µM.

As for `O=C(O)c1cn(Cc2ccc(-n3cccn3)cn2)c2c(F)cccc2c1=O` [Example 68], the EC50 came out at 1.9 µM. Under `O=C(O)c1cn(Cc2ccc(-c3cnn(CC(F)(F)F)c3)cn2)c2c(F)ccc(F)c2c1=O` [Example 156] stands 0.114 µM; under `O=C(O)c1cn(Cc2ccc(-c3ccccc3F)nn2)c2c(F)cccc2c1=O` [Example 329], 8.66 µM; under `O=C(O)c1cn(Cc2ccc(-c3ccc(F)nc3)cn2)c2c(F)cccc2c1=O` [Example 1, 5-{6-[(3-Carboxy-8-fluoro-4-oxoquinolin-1(4H)-yl)methyl]pyridine-3-yl}-2-fluoropyridinium], 0.202 µM. In the case of `O=C(O)c1cn(Cc2c(F)cncc2F)c2c(F)cccc2c1=O` [Example 283] it was 2.89 µM.

Take `Cn1ccc2cc(-c3ccc(Cn4cc(C(=O)O)c(=O)c5cccc(F)c54)cn3)ccc21` [Example 234]: the EC50 was found to be 0.037 µM. `COc1ccc(-c2ccc(Cn3cc(C(=O)O)c(=O)c4c(F)ccc(F)c43)nc2)cn1` [Example 134]: the EC50 is 0.302 µM.

As for `O=C(O)c1cn(Cc2ccc(-c3ccc(F)nc3)cn2)c2cccc(F)c2c1=O` [Example 7], the EC50 was 0.495 µM.

Regarding `O=C(O)c1cn(Cc2ccc(-c3ccc(F)cc3F)cn2)c2c(F)cccc2c1=O` [Example 108], the EC50 was found to be 0.745 µM.

On to `CS(=O)(=O)c1ccc(Cn2cc(C(=O)O)c(=O)c3cccc(F)c32)nn1` [Example 373, 8-Fluoro-1-{[6-(methylsulfonyl)pyridazin-3-yl]methyl}-4-oxo-1,4-dihydroquinoline-3-carboxylic acid], for which the EC50 was around 80 µM. In the case of `O=C(O)c1cn(Cc2ncc(-c3ccccc3O)cn2)c2c(F)cccc2c1=O` [Example 293] it was 2.32 µM. For the compound `Nc1cccc(-c2ccc(Cn3cc(C(=O)O)c(=O)c4cccc(F)c43)nc2)c1` [Example 55], the EC50 worked out at 0.024 µM.
